From patent US20100119528A1, “Transport of Biologically Active Molecules into a Cell, Mitochondrion, or Nucleus” (priority 2008, published 2010)

Tested on: mitochondria
Assay: Peptide-mediated delivery of cargo into cells/mitochondria (fluorescence microscopy)
Assay type: cell-based
Protocol: Cells, indicated above, were grown in 8-well culture slides. Peptide/protein complexes were formed in a volume of 100 μl in OptiMEM and incubated for 30 min at 37° C. Approximately 10,000 Cells grown to 75% confluence were overlaid with these preformed complexes. After 30 min of incubation at 37° C., 500 μl of fresh DMEM supplemented with 10% FBS was added to the cells and incubated for an additional 30 min. Cells were then washed with PBS followed by fixing with 4% paraformaldehyde in PBS. Cells were then mounted with flourescent-FragEL Mounting media (Calbiochem) containing DAPI nuclear stain before microscopic analysis. See, e.g., FIGS. 1, 2, 3, and 11.

Q: “AAVALLPAVLLALLAPMSVLTPLLLRGLTGSARRLPVPRAKIHSL (AAVALLPAVLLALLAPMSVLTPLLLRGLTGSARRLPVPRAKIHSL) [SEQ ID NO:19]” was tested. Which “delivery of Alexa-IgG into mitochondria” value (FIG. 1, 10 picomol Alexa-tagged IgG, SEQ ID NO:19 from 0 to 2000 pm, orange = red plus green stain) did it give?
A: Alexa-IgG complex has entered the mitochondria

Q: And the “delivery of FITC-tagged oligonucleotide” value (FIG. 2, green = mitochondria stained by FITC complex, blue = DAPI nucleus)?
A: demonstrates delivery of FITC-tagged oligonucleotide

Q: And the “delivery of double-stranded circular plasmid (~5.5 kb) into the mitochondria” value (FIG. 3, DNA stain, small blue dots = mitochondria)?
A: delivery of a double-stranded circular plasmid (˜5.5 kb) into the mitochondria
